# Results as given in the NIST ThermoML archive (doi:10.1016/j.tca.2012.05.004).
# Numbers after ± are expanded uncertainties.
# Conditions: 101.33 kPa, Liquid, Vibrating tube method
smiles,measurement,setting,value
CCCC(C)O (stereo unspecified) [pentan-2-ol],mass density,288.15 K,813.272 ± 0.3 kg/m3
same,mass density,293.15 K,809.305 ± 0.31 kg/m3
same,mass density,298.15 K,805.27 ± 0.31 kg/m3
same,mass density,303.15 K,801.157 ± 0.31 kg/m3
same,mass density,308.15 K,796.97 ± 0.31 kg/m3
same,mass density,313.15 K,792.702 ± 0.31 kg/m3
CCCCCCC(C)O (stereo unspecified) [2-octanol],mass density,288.15 K,824.028 ± 0.3 kg/m3
same,mass density,293.15 K,820.313 ± 0.3 kg/m3
same,mass density,298.15 K,816.559 ± 0.3 kg/m3
same,mass density,303.15 K,812.768 ± 0.3 kg/m3
same,mass density,308.15 K,808.94 ± 0.31 kg/m3
same,mass density,313.15 K,805.079 ± 0.31 kg/m3
CC(C)O [propan-2-ol],mass density,288.15 K,789.337 ± 0.31 kg/m3
same,mass density,293.15 K,785.198 ± 0.31 kg/m3
same,mass density,298.15 K,780.987 ± 0.31 kg/m3
same,mass density,303.15 K,776.718 ± 0.31 kg/m3
same,mass density,308.15 K,772.371 ± 0.31 kg/m3
same,mass density,313.15 K,767.935 ± 0.31 kg/m3
CCC(C)O (stereo unspecified) [butan-2-ol],mass density,288.15 K,810.879 ± 0.3 kg/m3
same,mass density,293.15 K,806.837 ± 0.31 kg/m3
same,mass density,298.15 K,802.716 ± 0.31 kg/m3
same,mass density,303.15 K,798.513 ± 0.31 kg/m3
same,mass density,308.15 K,794.218 ± 0.31 kg/m3
same,mass density,313.15 K,789.832 ± 0.31 kg/m3
CCCCC(C)O (stereo unspecified) [2-hexanol],mass density,288.15 K,818.064 ± 0.3 kg/m3
same,mass density,293.15 K,814.174 ± 0.3 kg/m3
same,mass density,298.15 K,810.227 ± 0.31 kg/m3
same,mass density,303.15 K,806.225 ± 0.31 kg/m3
same,mass density,308.15 K,802.16 ± 0.31 kg/m3
same,mass density,313.15 K,798.04 ± 0.31 kg/m3
"ClCCCl [1,2-dichloroethane]",mass density,288.15 K,1259.99 ± 0.58 kg/m3
same,mass density,293.15 K,1252.77 ± 0.57 kg/m3
same,mass density,298.15 K,1245.49 ± 0.56 kg/m3
same,mass density,303.15 K,1238.18 ± 0.56 kg/m3
same,mass density,308.15 K,1230.84 ± 0.55 kg/m3
same,mass density,313.15 K,1223.46 ± 0.54 kg/m3
